Source: patent US20160016986A1, “STABILIZED NUCLEOTIDES FOR MEDICAL TREATMENT” (priority 2014, published 2016)
Read-outs that look alike come from different tables or passages of the source.

Tests used:
HCV genotype 1 = settings: cited from earlier work
[1] = patients receiving high dosages of VX-135; cited from earlier work
[2] = human, in vivo; cited from earlier work
HCV replicon replication = experiment: Inhibition of HCV replication (HCV replicon in Huh-luc/neo cells; extrapolated to primary human hepatocytes); assay type: cell-based
[3] = Half-life of the active triphosphate in human hepatocytes; assay type: in vitro ADME; settings: plated in 12-well format
Experimental: Human hepatocyte cells used for half-life determinations were human liver hepatocyte 12-well format cells and were seeded at 0.67 million cells per well. Canine hepatocyte cells used for half-life determinations were beagle dog liver hepatocyte 12-well format cells and were seeded at 0.67 million cells per well. Monkey hepatocyte cells used for half-life determinations were Cynomolgus monkey liver hepatocyte 12-well format cells, and were seeded at 0.9 million cells per well. Rat hepatocyte cells for half-life determinations were Sprague-Dawley (SD) rat liver hepatocyte 12-well format cells, and were seeded at 0.67 million cells per well. All cells were obtained from Life Technologies.

human hepatocytes = experiment: Determination of nucleoside concentrations (dephosphorylated 5′-OH nucleoside) in human hepatocyte media and cell extract; assay type: in vitro ADME; settings: 20 μM Formula VII vs Formula II, 24 hours
Experimental: At 24 hours, media was removed and frozen. Cells were washed twice with cold PBS.
Supernatants were removed and analyzed by LC-MS/MS. […] Samples were centrifuged at 3000 rpm for 15 minutes. Supernatants were removed and analyzed by LC-MS/MS.
Hepatocyte media incubates were removed from the freezer, defrosted and vortexed. […] Supernatants were removed and analyzed by LC-MS/MS. […] Supernatants were removed and analyzed by LC-MS/MS.

human liver hepatocytes = experiment: Triphosphate levels in human hepatocytes after incubation with prodrug; settings: incubation with 5 μM prodrug over 48 hours
Experimental: Fresh liver hepatocytes were received plated in a 12-well or 6-well format (Life Technologies, Catalogue #HMFN12 and #HMNF06). Upon receipt, shipping media was removed immediately and replaced with 1 mL or 2 mL pre-warmed culture medium (Supplemented modified Chee's Media; Xenotech LLC, Catalogue# K2300) for 12- and 6-well formats, respectively. Cells were acclimated overnight at 37° C. with 5% CO2 atmosphere. […] Stability of the compounds in the absence of cells was also assayed. […] Cells were washed twice with cold PBS. 70% cold Methanol (0.75 mL or 1.5 mL, for 12- and 6-well formats, respectively) containing Formula X as an internal standard was added to each well and cells were gently removed from the plate by scraping. The recovered cells suspended in the methanol solution were aspirated into a vial and frozen at −80° C.
Cell solutions were extracted overnight at −80° C. in 70% methanol, removed from the freezer, defrosted and vortexed. Tubes were centrifuged at 3000 rpm for 15 minutes at 4° C. Supernatants were removed and analyzed by LC-MS/MS. […] Supernatants were removed and analyzed by LC-MS/MS. […] The analytes were quantified using linear regression of calibration standard values with instrument response. […]
The general methods of Example 33 were used to determine compound concentrations. […] The results were plotted and the linear regression was calculated using Microsoft Excel.

HCV genotype 1, 2 or 3 = settings: once-daily 300 mg for seven days; cited from earlier work
HCV = settings: several large clinical trials; cited from earlier work
[4] = beagle (dog), Sprague-Dawley (rat), cynomolgus monkey, range over human, dog, monkey and rat hepatocytes, read-out: half-life of active triphosphate in hepatocytes
[5] = 6 well plate (2 ml), 1.7 million cells per well
[6] = 12 well plate (1 ml), 0.67 million cells per well

CC(C)OC(=O)[C@H](C)NP(=S)(OC[C@H]1O[C@@H](n2ccc(=O)[nH]c2=O)[C@](C)(O)[C@@H]1O)Oc1ccccc1 (single isomer, unassigned) [VX-135]
completion of treatment rate (SVR12) (HCV genotype 1; 200 mg VX-135 in combination with daclatasvir, 12 weeks of treatment): 91%
sustained viral response rate four weeks after completion of treatment (SVR4) (HCV genotype 1; 200 mg VX-135 in combination with daclatasvir, treatment-naïve genotype 1, intent-to-treat): 83%
adverse event (HCV genotype 1; VX-135 in combination with daclatasvir, one patient): serious adverse event of vomiting/nausea
clinical toxicity finding [1]: liver toxicity

COc1nc(N)nc2c1ncn2[C@@H]1O[C@H](COP(=O)(N[C@@H](C)C(=O)OCC(C)(C)C)Oc2cccc3ccccc23)[C@@H](O)[C@@]1(C)O (some centres unmarked) [BMS-986094]
clinical safety outcome [2]: death of a patient due to heart failure

[2H]c1cn([C@@H]2O[C@H](C([2H])([2H])O[P@@](=O)(N[C@@H](C)C(=O)OC(C)C)Oc3ccccc3)[C@@H](O)[C@@]2(C)O)c(=O)[nH]c1=O [Formula II, (S)-isopropyl 2-(((S)-(((2R,3R,4R,5R)-5-(5-deutero-2,4-dioxo-3,4-dihydropyrimidin-1(2H)-yl)-3,4-dihydroxy-4-methyltetrahydrofuran-2-yl)dideuteromethoxy)(phenoxy)phosphoryl)amino)propanoate]
EC50 (HCV replicon replication; Hepatitis C virus, Hepatocyte, read-out: predicted EC50 in primary human hepatocytes): 6.25 to 10 nM

[2H]c1cn(C2OC(C([2H])([2H])OP(=O)(O)OP(=O)(O)OP(=O)(O)O)[C@@H](O)[C@@]2(C)O)c(=O)[nH]c1=O (some centres unmarked) [Formula IV]
half-life [3, 4]: 10 to 30 h
half-life ([3]; human, human hepatocytes, read-out: half-life of triphosphate): > 24 h

C[C@@]1(O)[C@H](O)[C@@H](CO)O[C@H]1n1ccc(=O)[nH]c1=O [Formula IX, 2′-C-methyluridine]
higher concentration of undeuterated dephosphorylated 2′-methyl uridine compared to 5′-deuterated form (Formula VI), cell extract (intracellular) (human hepatocytes; [5]): 2.8 fold
higher concentration of undeuterated dephosphorylated 2′-methyl uridine compared to 5′-deuterated form (Formula VI), first value, printed as cell extract (human hepatocytes; [5]): 1.5 fold
higher concentration of undeuterated dephosphorylated 2′-methyl uridine (Formula IX) compared to 5′-deuterated form (Formula VI), cell extract (intracellular) (human hepatocytes; [6]): 2.9 fold
higher concentration of undeuterated dephosphorylated 2′-methyl uridine (Formula IX) compared to 5′-deuterated form (Formula VI), media (extracellular) (human hepatocytes; [6]): 1.9 fold

[2H]c1cn(C2OC(C([2H])([2H])O)[C@@H](O)[C@@]2(C)O)c(=O)[nH]c1=O (some centres unmarked) [Formula VI, 5′-deuterated 2′-C-methyluridine]
activity against hepatitis C viral replication (HCV replicon replication; statement in description, poor substrate for nucleoside monophosphate kinase): little activity

C[C@@]1(F)[C@H](O)[C@@H](COP(=O)(O)OP(=O)(O)OP(=O)(O)O)O[C@H]1n1ccc(=O)[nH]c1=O [GS-7977-TP]
time of peak triphosphate levels in human hepatocytes (human liver hepatocytes): 24 h
half-life [3, 4]: 8 to 23 h

CC(C)OC(=O)[C@@H](C)N[P@@](=O)(OC[C@H]1O[C@@H](n2ccc(=O)[nH]c2=O)[C@](C)(Cl)[C@@H]1O)Oc1ccccc1 [IDX21437]
mean maximum reduction in viral load (HCV genotype 1, 2 or 3): 4.2-4.3 log 10 IU/mL

CC(C)OC(=O)[C@H](C)N[P@](=O)(OC[C@H]1O[C@@H](n2ccc(=O)[nH]c2=O)C(C)(F)C1O)Oc1ccccc1 (some centres unmarked) [Sofosbuvir]
sustained viral response (SVR) of twelve weeks, share of trial participants (HCV): 50-90%
